Measurements as given in ChEMBL document CHEMBL5236560, “Structure-Based Discovery of Potent CARM1 Inhibitors for Solid Tumor and Cancer Immunology Therapy” (J Med Chem, 2021).

How the values were obtained:
[1] = molecular target: T1, Histone-arginine methyltransferase CARM1 (Homo sapiens, UniProt Q86X55); assay: Inhibition of human CARM1 (140 to 480 residues) incubated for 15 mins measured after 60 min by AlphaLISA assay
T1 sequence (Q86X55 whole entry): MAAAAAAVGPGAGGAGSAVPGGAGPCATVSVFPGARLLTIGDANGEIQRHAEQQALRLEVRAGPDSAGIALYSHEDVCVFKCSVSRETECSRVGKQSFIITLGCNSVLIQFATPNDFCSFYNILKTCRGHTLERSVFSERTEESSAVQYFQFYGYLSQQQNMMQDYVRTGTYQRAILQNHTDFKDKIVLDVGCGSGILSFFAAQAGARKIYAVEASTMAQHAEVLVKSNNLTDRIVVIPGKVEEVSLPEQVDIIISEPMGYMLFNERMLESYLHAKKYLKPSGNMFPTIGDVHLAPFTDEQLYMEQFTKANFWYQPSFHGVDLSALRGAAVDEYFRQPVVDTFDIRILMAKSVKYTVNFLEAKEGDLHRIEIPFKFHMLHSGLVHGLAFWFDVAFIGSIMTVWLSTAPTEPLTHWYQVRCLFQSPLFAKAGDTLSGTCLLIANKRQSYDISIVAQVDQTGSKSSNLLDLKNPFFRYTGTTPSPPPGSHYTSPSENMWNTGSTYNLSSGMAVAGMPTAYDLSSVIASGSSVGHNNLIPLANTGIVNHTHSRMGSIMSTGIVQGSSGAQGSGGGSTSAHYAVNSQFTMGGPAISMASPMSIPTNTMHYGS

A-375 [2] = assay: Antiproliferative activity against human A-375 cells assessed as cell growth inhibition incubated for 6 days by SRB assay; assay type: functional, cell-based; details: A-375, 144 h
BT-549 = assay: Antiproliferative activity against human BT-549 cells assessed as cell growth inhibition incubated for 6 days by SRB assay; assay type: functional, cell-based; details: BT-549, 144 h
A-375 [3] = assay: Antitumor activity against human A-375 cells xenografted in po dosed nude mouse assessed as tumor growth inhibition at 75 mg/kg administered once daily measured after 21 days relative to control; assay type: functional; details: A-375, 504 h, time 21 day, read-out: TGI
A-375 [4] = assay: Antitumor activity against human A-375 cells xenografted in po dosed nude mouse assessed as tumor growth inhibition at 100 mg/kg administered once daily measured after 21 days relative to control; assay type: functional; details: A-375, 504 h, time 21 day, read-out: TGI
[5] = Metabolic stability in monkey liver microsomes assessed as parent compound remaining measured after 2 hrs; assay type: ADME, Macaca mulatta, Microsome; details: rhesus monkey, read-out: Stability
[6] = Metabolic stability in human liver microsomes assessed as parent compound remaining measured after 2 hrs; assay type: ADME, Microsome; details: read-out: Stability
[7] = Cmax in ICR mouse at 10 mg/kg, po measured upto 24 hrs by UPLC analysis; assay type: ADME, organism-based; set-up: time < 24 hrs, dose 10 mg/kg, route po; details: in vivo
[8] = Metabolic stability in rat liver microsomes assessed as parent compound remaining measured after 2 hrs; assay type: ADME, Microsome; details: read-out: Stability
[9] = Tmax in ICR mouse at 10 mg/kg, po measured upto 24 hrs by UPLC analysis; assay type: ADME, organism-based; details: in vivo
[10] = AUClast in ICR mouse at 10 mg/kg, po measured upto 24 hrs by UPLC analysis; assay type: ADME, organism-based; set-up: dose 10 mg/kg, time < 24 hrs, route po; details: in vivo
[11] = Metabolic stability in dog liver microsomes assessed as parent compound remaining measured after 2 hrs; assay type: ADME, Canis lupus familiaris, Microsome; details: read-out: Stability
[12] = AUC(0 to infinity) in ICR mouse at 10 mg/kg, po measured upto 24 hrs by UPLC analysis; assay type: ADME, organism-based; set-up: dose 10 mg/kg, time < 24 hrs, route po; details: in vivo
[13] = Half life in ICR mouse at 10 mg/kg, po measured upto 24 hrs by UPLC analysis; assay type: ADME, organism-based; details: in vivo
[14] = Metabolic stability in mouse liver microsomes assessed as parent compound remaining measured after 2 hrs; assay type: ADME, Microsome; details: read-out: Stability

SMILES: CNCCNCc1cccc(-c2nc(NC3CCOCC3)c(C)c(-c3cccc4[nH]ccc34)n2)c1
- IC50 [1]: 11.8 nM

SMILES: CNCCNCc1cccc(-c2nc(NC3CCOCC3)c(C)c(-c3ccc(OC)cc3)n2)c1
- IC50 [1]: 26.9 nM

SMILES: Cc1noc(C)c1-c1nc(-c2cccc(CNC(=O)[C@H](C)N)c2)nc(NC2CCOCC2)c1C
- IC50 [1]: > 1000 nM

SMILES: Cc1c(NC2CCOCC2)nc(-c2cccc(CNC(=O)[C@H](C)N)c2)nc1-c1ccncc1
- IC50 [1]: > 1000 nM

SMILES: CNCCNCc1cccc(-c2nc(Nc3ccccc3)c(C)c(NC3CCOCC3)n2)c1
- IC50 [1]: 187 nM

SMILES: CNCCNCc1cccc(-c2nc(NC3CCN(S(C)(=O)=O)CC3)c(C)c(-c3c(C)noc3C)n2)c1
- IC50 (A-375 [2]): > 50000 nM
- IC50 (BT-549): > 50000 nM
- IC50 [1]: 4.24 nM

SMILES: CNCCNCc1cccc(-c2nc(NC3CCOCC3)c(C)c(-c3ccccn3)n2)c1
- IC50 [1]: 6.15 nM

SMILES: CNCCNCc1cccc(-c2nc(Nc3ccccc3)c(C)c(-c3cccnc3)n2)c1
- IC50 (A-375 [2]): 10900 nM
- IC50 (BT-549): 14100 nM
- IC50 [1]: 11.6 nM

SMILES: CNCCNCc1cccc(-c2nc(-c3c(C)noc3C)c(C)c(N3CCN(S(C)(=O)=O)CC3)n2)c1
- IC50 (A-375 [2]): > 50000 nM
- IC50 (BT-549): > 50000 nM
- IC50 [1]: 0.78 nM

SMILES: CNCCNCc1cccc(-c2nc(Nc3ccccc3)c(C)c(-c3c(C)nn(C)c3C)n2)c1
- IC50 (A-375 [2]): 6700 nM
- IC50 (BT-549): 8200 nM
- IC50 [1]: 19.6 nM

SMILES: CNCCNCc1cccc(-c2nc(-c3c(C)noc3C)c(C)c(N3Cc4cccnc4C3)n2)c1
- IC50 (A-375 [2]): 8200 nM
- IC50 (BT-549): 11900 nM
- IC50 [1]: 1.13 nM

SMILES: CNCCNCc1cccc(-c2nc(NC3CCOCC3)c(C)c(-c3ccnn3C)n2)c1
- IC50 (A-375 [2]): > 50000 nM
- IC50 (BT-549): > 50000 nM
- IC50 [1]: 2.94 nM

SMILES: CNCCNCc1cccc(-c2nc(NC3CCOCC3)c(C)c(-c3c(C)nn(C)c3C)n2)c1
- IC50 (A-375 [2]): > 50000 nM
- IC50 (BT-549): > 50000 nM
- IC50 [1]: 0.65 nM

SMILES: CNCCNCc1cccc(-c2nc(NC3CCOCC3)c(C)c(-c3ccc(OC(F)(F)F)cc3)n2)c1
- IC50 [1]: 5.13 nM

SMILES: CNCCNCc1cccc(-c2nc(NC3CCOCC3)c(C)c(-c3cccnc3)n2)c1
- IC50 (A-375 [2]): 45500 nM
- IC50 (BT-549): > 50000 nM
- IC50 [1]: 0.92 nM

SMILES: CNCCNCc1cccc(-c2nc(NC3CCOCC3)c(C)c(-c3cncnc3)n2)c1
- IC50 (A-375 [2]): > 50000 nM
- IC50 (BT-549): > 50000 nM
- IC50 [1]: 4.29 nM

SMILES: CNC[C@@H](O)COc1ccc(Cl)c(-c2nc(-c3c(C)noc3C)c(C)c(N3CC4(CCN(C(=O)OC)CC4)C3)n2)c1
- inhibition in vivo at 75 mg/kg (A-375 [3]): 24%
- inhibition in vivo at 100 mg/kg (A-375 [4]): 82.6%

SMILES: Cc1c(NC2CCOCC2)nc(-c2cccc(CNC(=O)[C@@H](N)CO)c2)nc1-c1ccccc1
- IC50 [1]: > 1000 nM

SMILES: CNCCNCc1cccc(-c2nc(NC3CCOCC3)c(C)c(-c3cccc4cnccc34)n2)c1
- IC50 (A-375 [2]): 12700 nM
- IC50 (BT-549): 32000 nM
- IC50 [1]: 4.37 nM

SMILES: CNCCNCc1cccc(-c2nc(NC3CCOCC3)c(C)c(OCc3ccccc3)n2)c1
- IC50 [1]: 33.6 nM

SMILES: CNCCNCc1cccc(-c2nc(NC3CCOCC3)c(C)c(-c3cc4cccc(OC)c4[nH]3)n2)c1
- IC50 [1]: 29.4 nM

SMILES: CNCCNCc1cccc(-c2nc(NC3CCOCC3)c(C)c(-c3ccc(S(C)(=O)=O)cc3)n2)c1
- IC50 [1]: 5.2 nM

SMILES: CNCCNCc1cccc(-c2nc(Cl)c(C)c(NC3CCOCC3)n2)c1
- IC50 [1]: 29.5 nM

SMILES: CNCCNCc1cccc(-c2nc(-c3c(C)noc3C)c(C)c(N3CCN(C)CC3)n2)c1
- IC50 [1]: 13.1 nM

SMILES: Cc1c(NC2CCOCC2)nc(-c2cccc(CNC(=O)[C@H](C)N)c2)nc1-c1ccccc1
- IC50 [1]: > 1000 nM

SMILES: CNCCNCc1cccc(-c2nc(NC3CCOCC3)c(C)c(-c3ccc(O)cc3)n2)c1
- IC50 (A-375 [2]): 24100 nM
- IC50 (BT-549): 23700 nM
- IC50 [1]: 2.3 nM

SMILES: CNCCNCc1cccc(-c2nc(NC3CCOCC3)c(C)c(-c3ccnc4[nH]ccc34)n2)c1
- IC50 (A-375 [2]): 18200 nM
- IC50 (BT-549): 25200 nM
- IC50 [1]: 3.84 nM

SMILES: CNCCNCc1cccc(-c2nc(-c3c(C)noc3C)c(C)c(N3CCN(C(C)=O)CC3)n2)c1
- IC50 [1]: 11.5 nM

SMILES: Cc1c(NC2CCOCC2)nc(-c2cccc(CNC(=O)[C@@H](N)CO)c2)nc1-c1ccncc1
- IC50 [1]: > 1000 nM

SMILES: CNCCNCc1cccc(-c2nc(NC3CCOCC3)c(C)c(-c3cc4ccccc4s3)n2)c1
- IC50 [1]: 21.4 nM

SMILES: CNCCNCc1cccc(-c2nc(-c3c(C)noc3C)c(C)c(N3CCS(=O)(=O)CC3)n2)c1
- IC50 (A-375 [2]): > 50000 nM
- IC50 (BT-549): > 50000 nM
- IC50 [1]: 2.46 nM

SMILES: CNCCNCc1cccc(-c2nc(NCc3ccccc3)c(C)c(NC3CCOCC3)n2)c1
- IC50 [1]: 31.5 nM

SMILES: Cc1noc(C)c1-c1nc(-c2cccc(CNC(=O)[C@@H](N)CO)c2)nc(NC2CCOCC2)c1C
- IC50 [1]: > 1000 nM

SMILES: CNCCNCc1cccc(-c2nc(NC3CCOCC3)c(C)c(-c3c(C)noc3C)n2)c1
- remaining at 2 h [5]: 86.1%
- remaining at 2 h [6]: 93.1%
- Cmax [7]: 95.4 ng/mL
- IC50 (A-375 [2]): > 50000 nM
- remaining at 2 h [8]: 93.4%
- Tmax [9]: 1.33 h
- AUC(0-t) at 24 h [10]: 199 ng·h/mL
- remaining at 2 h [11]: 85.5%
- AUC(0-inf) [12]: 209 ng·h/mL
- IC50 (BT-549): > 50000 nM
- half-life [13]: 6.56 h
- remaining at 2 h [14]: 90%
- IC50 [1]: 1.63 nM

SMILES: CNCCNCc1cccc(-c2nc(NC3CCOCC3)c(C)c(-c3ccncc3)n2)c1
- IC50 (A-375 [2]): 44300 nM
- IC50 (BT-549): > 50000 nM
- IC50 [1]: 3.68 nM

SMILES: CNCCNCc1cccc(-c2nc(NC3CCOCC3)c(C)c(-c3cn(C)nc3C)n2)c1
- IC50 (A-375 [2]): > 50000 nM
- IC50 (BT-549): > 50000 nM
- IC50 [1]: 3.78 nM

SMILES: CNCCNCc1cccc(-c2nc(-c3c(C)noc3C)c(C)c(N3Cc4ccccc4C3)n2)c1
- IC50 [1]: 10.1 nM

SMILES: CNCCNCc1cccc(-c2nc(-c3c(C)noc3C)c(C)c(N3CCCCC3)n2)c1
- IC50 [1]: 21.7 nM

SMILES: CNCCNCc1cccc(-c2nc(NC3CCOCC3)c(C)c(-c3cccc4ncccc34)n2)c1
- IC50 [1]: 6.07 nM

SMILES: CNCCNCc1cccc(-c2nc(NC3CCOCC3)c(C)c(-c3ccccc3)n2)c1
- IC50 [1]: 10.2 nM

SMILES: CNCCNCc1cccc(-c2nc(NC3CCOCC3)c(C)c(Oc3ccccc3)n2)c1
- IC50 [1]: 60 nM

SMILES: CNCCNCc1cccc(-c2nc(-c3c(C)noc3C)c(C)c(N3CCOCC3)n2)c1
- IC50 (A-375 [2]): 24700 nM
- IC50 (BT-549): > 50000 nM
- IC50 [1]: 1.1 nM
